Assay results as given in ChEMBL document CHEMBL3576765, “Rubrumazines A-C, Indolediketopiperazines of the Isoechinulin Class from Eurotium rubrum MA-150, a Fungus Obtained from Marine Mangrove-Derived Rhizospheric Soil” (J Nat Prod, 2015).
In brackets after ≈: the same amount, converted by molar mass.

test system: Artemia salina; assay: (§1) Toxicity in brine shrimp assessed as mortality; type: organism-based; details: in vivo; call rule not given here

| SMILES | LD50 |
| --- | --- |
| C=CC(C)(C)c1[nH]c2ccc(CC=C(C)C)cc2c1C[C@@H]1NC(=O)[C@H](C)NC1=O [TARDIOXOPIPERAZINE A] | Not Active |
| C=CC(C)(C)c1[nH]c2ccc(CC=C(C)C)c(CC=C(C)C)c2c1C[C@@H]1NC(=O)[C@H](C)NC1=O [VARIECOLORIN L] | Not Active |
| C=CC(C)(C)c1[nH]c2c(CC=C(C)C)cc(CC=C(C)C)cc2c1C[C@@H]1NC(=O)[C@H](C)NC1=O [ECHINULIN] | Not Active |

test system: not listed separately; assay: as §1; type: organism-based; details: artemia salina, in vivo; read-out: LD50 (the source's name)

| SMILES | LC50 [µM] |
| --- | --- |
| C=CC(C)(C)c1[nH]c2ccccc2c1/C=C1\NC(=O)C2(C=C3c4cc(O)cc(O)c4C(=O)c4c(O)cc(C)c(c43)O2)NC1=O (stereo unspecified) | 16.7 |
| C=CC(C)(C)c1[nH]c2ccc(CC(=O)C(C)C)cc2c1/C=C1\NC(=O)[C@H](C)NC1=O [VARIECOLORIN E] | 24 |
| C[C@@H]1NC(=O)[C@H](Cc2c[nH]c3ccccc23)NC1=O | 25.5 |
| C=CC(C)(C)c1[nH]c2c(C[C@H](O)C(C)(C)O)cccc2c1C[C@@H]1NC(=O)[C@H](C)NC1=O | 16.5 |
| C=CC(C)(C)c1[nH]c2c(CC=C(C)C)cc(CC=C(C)C)c(CC=C(C)C)c2c1/C=C1\NC(=O)[C@H](C)NC1=O | 3.5 |
| C=CC(C)(C)c1[nH]c2c(C[C@H](O)C(C)(C)O)cccc2c1/C=C1\NC(=O)[C@H](C)NC1=O | 2.4 |
| COc1cc2c(c(OC)c1OC)-c1ccc(OC)c(=O)cc1[C@@H](NC(C)=O)CC2 [COLCHICINE] | 19.4 |
| C=CC(C)(C)c1[nH]c2c(CC=C(C)C)cccc2c1/C=C1\NC(=O)[C@H](C)NC1=O [VARIECOLORIN G] | 22 |
| C=CC(C)(C)c1[nH]c2ccc(CC=C(C)C)cc2c1/C=C1\NC(=O)[C@H](C)NC1=O [ISOECHINULIN A] | 11.7 |
| C=CC(C)(C)c1[nH]c2c(C[C@H](O)C(C)(C)OC)cccc2c1/C=C1\NC(=O)[C@H](C)NC1=O | 29.8 |
| C=CC(C)(C)c1[nH]c2ccccc2c1/C=C1\NC(=O)C2(C=C3c4cc(O)cc(OC)c4C(=O)c4c(O)cc(C)c(c43)O2)NC1=O (stereo unspecified) | 9.8 |
| C=CC(C)(C)c1[nH]c2ccccc2c1/C=C1\NC(=O)C(=O)NC1=O | 3.9 |

test system: Vibrio alginolyticus; assay: Antibacterial activity against Vibrio alginolyticus by well diffusion method; type: functional; details: not given

| MIC [µg/mL] | SMILES |
| --- | --- |
| 4 (≈ 12.4 µM) | O=C(N[C@H](CO)[C@H](O)c1ccc([N+](=O)[O-])cc1)C(Cl)Cl [CHLORAMPHENICOL] |
